Source: patent US20020183357A1, “Use of alpha- 1- alpha adrenoceptor agonists with alpha-1-Beta antagonism for the treatment of stress urinary incontinence” (priority 2000, published 2002)
Read-outs that look alike come from different tables or passages of the source.

Key:
[1] = biological target: T1, α1A adrenoceptor subtype (rabbit urethra) (Oryctolagus cuniculus, UniProt O02824); assay: Rabbit urethra tissue bath, agonism; conditions: for α1A efficacy: percent of phenylephrine (100%) contraction
T1 sequence (O02824 1-466): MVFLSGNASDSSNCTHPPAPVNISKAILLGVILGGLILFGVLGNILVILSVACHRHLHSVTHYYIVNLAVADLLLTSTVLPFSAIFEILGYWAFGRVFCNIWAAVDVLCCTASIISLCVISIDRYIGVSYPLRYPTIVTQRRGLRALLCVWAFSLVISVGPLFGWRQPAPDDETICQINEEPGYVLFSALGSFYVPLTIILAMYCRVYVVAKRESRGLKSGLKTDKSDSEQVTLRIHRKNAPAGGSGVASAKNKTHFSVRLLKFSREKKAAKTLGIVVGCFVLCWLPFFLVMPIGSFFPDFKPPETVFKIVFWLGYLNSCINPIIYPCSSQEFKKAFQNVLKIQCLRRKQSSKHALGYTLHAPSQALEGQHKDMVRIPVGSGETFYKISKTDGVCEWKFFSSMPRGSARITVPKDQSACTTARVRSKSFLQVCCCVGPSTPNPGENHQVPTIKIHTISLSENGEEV
Source text: (§1) Quantitative analysis of agonist and antagonist action is the basis of receptor classification and drug design. […] The interaction of an agonist with a receptor may be characterized by two quantities, affinity and efficacy. These quantities can be estimated by generating two concentration response curves and fitting the data to a four parameter curve smoothing routine. The first curve is a reference standard followed by a thorough rinsing and a second curve generated using the test agent. […] Agonist potency (pD2) is expressed as the negative log10 of the EC50. The efficacy is determined by comparing the maximum value of the test agent to the maximum value of the reference agent and expressed as a % of maximum response.
(§2) A cumulative concentration protocol was employed. […] Br. J. Pharmacol. 14, 48-58.
The efficacy of the compounds are compared as a percent of phenylephrine (100%) contraction.

[2] = for IUP ED5 mmHg: dose producing 5 mmHg increase in IUP; for Selectivity ratio MAP ED20/IUP ED5: calculated for each dog and then averaged
Source text: Intraurethral Pressure in Dogs (IUP-MAP test)
Female Beagle dogs (Marshall Farms, North Rose, N.Y.) greater that 2 years of age and weighing between 12 and 15 kg were used in these studies. At least 2 weeks prior to any agonist dosing, dogs were instrumented for the chronic measurement of arterial blood pressure by implanting a telemetry transducer/transmitter (TA11PA-C40, Data Sciences International, St. Paul, Minn.) into a carotid artery.
On the test day, dogs fasted since the previous afternoon were pre-anesthetized with thiopental sodium 15 mg/kg i.v. (Pentothal™, Abbott) and intubated. Anesthesia was maintained by allowing the dog to spontaneously breathe a mixture of isoflurane (2.5 to 3 volume %) and oxygen delivered by a Narkomed Standard anesthesia system (North American Drager, Telford, Pa.). An Abbocath-T™ i.v. catheter (18-G, Abbott Laboratories, Abbott Park, Ill.) was inserted into the cephalic vein for the administration of agonists. A telemetry receiver (RA1310, DataSciences) was placed under the head of each dog and was interfaced to a computerized data acquisition system (Modular Instruments Inc.(MI2), Malvern, Pa.) which allowed for the continuous calibrated recording of arterial blood pressure which was electronically filtered to determine its mean value (MAP).
Briefly, a 7 Fr catheter balloon catheter (41224-01, Abbott) was inserted into the urethral orifice and advanced approximately 15 cm until the tip was well inside the bladder. The balloon was then inflated with 1 ml of room air and the catheter slowly withdrawn until resistance (corresponding to the bladder neck) was evident. The balloon was then deflated and the catheter withdrawn an additional 2 cm. The balloon was then reinflated and its catheter port connected to a Gould Statham P23Dd pressure transducer interfaced to a computerized data acquisition system (Modular Instruments, Inc., Malvern, Pa.) for the measurement of intraurethral pressure (IUP). The MAP and IUP pressor responses to increasing iv doses of test agonists were obtained simultaneously. The pressor effects of each dose were allowed to return to baseline before the next dose was given.
The dose required to elicit significant and clinically meaningful changes in IUP (5 mm Hg) relative to the dose required to elicit a physiologically significant increase in blood pressure (20 mm Hg) is calculated.
IUP and MAP pressor effects of each agonist dose were expressed as the maximum net change in each pressure over pre-dose baseline levels. Subsequently, the effective doses required to produce a 5 mmHg increase in IUP (IUP ED5mmHg) and a 20 mmHg increase in MAP (MAP ED20mmHg) were estimated from the dose response data from each dog. Relative urethral versus vascular selectivity of each agonist in each dog was estimated using a ratio of these respective potency indices (MAP ED20mmHg/IUP ED5mmHg).
Data are expressed as means (±S.E.M) and all doses are in nmol/kg, i.v.

[3] = biological target: T2, α1D adrenoceptor subtype (rat aorta) (Rattus norvegicus, UniProt P23944); assay: Rat aorta tissue bath, agonism; conditions: for α1D efficacy: percent of phenylephrine (100%) contraction
T2 sequence (P23944 1-561): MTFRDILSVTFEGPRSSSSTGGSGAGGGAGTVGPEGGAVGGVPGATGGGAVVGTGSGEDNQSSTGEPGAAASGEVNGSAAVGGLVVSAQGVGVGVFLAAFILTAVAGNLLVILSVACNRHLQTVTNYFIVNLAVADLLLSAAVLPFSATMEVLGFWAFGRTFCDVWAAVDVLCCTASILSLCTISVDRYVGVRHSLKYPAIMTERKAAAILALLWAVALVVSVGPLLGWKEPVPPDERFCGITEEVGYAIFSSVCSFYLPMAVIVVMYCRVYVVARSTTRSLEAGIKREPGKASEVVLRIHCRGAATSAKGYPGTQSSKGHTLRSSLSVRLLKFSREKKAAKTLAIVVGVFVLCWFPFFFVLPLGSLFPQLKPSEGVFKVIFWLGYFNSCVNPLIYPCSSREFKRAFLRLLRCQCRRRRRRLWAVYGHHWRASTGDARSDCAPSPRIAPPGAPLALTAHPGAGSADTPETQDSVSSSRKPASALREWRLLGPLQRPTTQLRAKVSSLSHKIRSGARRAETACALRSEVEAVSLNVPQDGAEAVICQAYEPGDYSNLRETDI
Source text: as §1, §2

[4] = biological target: T3, α1B adrenoceptor subtype (rat spleen) (Rattus norvegicus, UniProt P15823); assay: Rat spleen tissue bath, agonism; parameters: The spleen was split longitudinally into two preparations per rat; from tissue; host or cells: rat spleen
T3 sequence (P15823 1-515): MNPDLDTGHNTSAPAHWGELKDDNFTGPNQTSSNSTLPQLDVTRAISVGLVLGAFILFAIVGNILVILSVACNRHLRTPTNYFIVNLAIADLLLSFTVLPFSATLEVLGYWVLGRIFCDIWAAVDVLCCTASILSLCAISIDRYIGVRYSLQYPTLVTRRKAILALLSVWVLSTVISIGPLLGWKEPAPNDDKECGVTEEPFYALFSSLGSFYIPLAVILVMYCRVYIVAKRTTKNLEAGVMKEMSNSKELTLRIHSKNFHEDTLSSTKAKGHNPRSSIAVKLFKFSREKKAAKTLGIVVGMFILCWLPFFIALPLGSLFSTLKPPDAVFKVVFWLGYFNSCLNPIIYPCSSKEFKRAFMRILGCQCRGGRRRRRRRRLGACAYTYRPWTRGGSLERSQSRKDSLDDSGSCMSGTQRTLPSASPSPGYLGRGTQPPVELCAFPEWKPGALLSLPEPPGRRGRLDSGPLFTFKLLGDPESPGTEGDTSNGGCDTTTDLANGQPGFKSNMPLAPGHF
Source text: as §1, §2
(§3) The spleen was split longitudinally into two preparations per rat.

[5] = biological target: T3, α1B adrenoceptor subtype (rat spleen); conditions: for type of antagonism at α1B: based on slope and regression (r) of Schild plot; for α1B r (regression of Schild plot) / α1B slope (Schild plot): rat spleen
Source text: as §2, §3

[6] = biological target: T2, α1D adrenoceptor subtype (rat aorta); conditions: for type of antagonism at α1D: based on slope and regression (r) of Schild plot; for α1D r (regression of Schild plot) / α1D slope (Schild plot): rat aorta
Source text: (§4) The interaction of an antagonist with a receptor can be characterized by an affinity constant, pA2. The affinity unit, pA2, can be defined as negative logarithm to base 10 of the molar concentration of antagonist drug that will reduce the effect of the reference agonist by 50%. […] The fractional increase in agonist concentration required to overcome the effects of the antagonist should be independent of the agonist concentration. Secondly, the affinity of the antagonist should be independent of concentration, therefore the Schild plot should have a slope of unity. Thirdly, the antagonist affinity should be independent of the agonist used.
(§5) The urethra was removed with the urinary bladder and immediately placed into Krebs Ringer bicarbonate solution with the following mM concentrations: 120 NaCl, 18.0 NaHCO3, 11.0 dextrose, 4.7 KCl, 2.5 CaCl2, 1.5 MgSO4, 1.2 KH2PO4 and equilibrated with 5% CO2:95% O2. The pH was adjusted to 7.2 at 25° C. by titrating with a saturated solution of NaHCO3. The pH increased to 7.4 at 37° C. Propranolol (0.004 mM) was included in all of the assays to block β-adrenoceptors. […] One end was fixed to a stationary glass rod and the other to a Grass FT03 transducer at a basal preload of 1.0 g of tension. Data was recorded on a Grass model-7 polygraph. Tissues were rinsed every 10 minutes for a total of 45-60 minutes. The urethra was primed once with 80 mM KCl, rinsed to basal tension and again with 10 μM phenylephrine (PE). After an additional 60 minute equilibration period a reference concentration response curve was generated for each tissue using PE as the reference agonist. A cumulative concentration protocol was employed. Following a 75 minute washout period a second response curve was then generated in the same fashion using the test agent. The amount of agent necessary to cause a 50% response (ED50) was calculated using “AGANTG” (Zielinski, P. J., Buckner, S. A. (1998). AGANTG: A Microsoft Excel 5.0-visual basic routine for the analysis of dose-response data. Analyst. 123, 1661-1668), a four parameter curve fitting program similar to “Allfit” (DeLean, A., Munson, P. J., Rodbard, D. (1980). Simultaneous analysis of families of sigmoidal curves: application to bioassay, radioligand assay, and physiological dose-response curves. Am. J. Physiol. 235, E97-102). Agonist potencies were indexed to PE and expressed as the negative logarithm (pD2). Each tissue was used for only one test agonist. For antagonists, the test agent was allowed a 30 minute exposure time before a second PE curve was started. The potency, expressed as a pA2, was calculated according to the method of Arunlakshana, O., Schild, H. O. (1959), Some quantitative uses of drug antagonists. […] The individual tissues were exposed to only one concentration of the test antagonist. The regression lines of the Schild plots were analyzed using least squares regression (Snedecor, G. W., Cochran, W. G., (1980). In Statistical methods, 7th edition, Iowa State University Press, Ames, Iowa).
(§6) Male Sprague Dawley rats (350-450 g) were sedated with CO2 and decapitated. The entire thoracic aorta was removed and immediately placed into Krebs Ringer bicarbonate solution as described above. The aorta was cleaned of extraneous tissue and the endothelium removed by passing a 100 mm length of PE-160 tubing through the lumen. The aorta was cut into 3-4 mm rings and mounted in 10 ml isolated tissue baths at 37° C.

[7] = biological target: T2, α1D adrenoceptor subtype (rat aorta)
Source text: as §4, §5, §6

[8] = biological target: T4, α1A adrenoceptor (rat submaxillary gland) (Rattus norvegicus, UniProt P43140); assay: Radioligand binding, α1A (rat submaxillary gland), [3H]-prazosin
T4 construct: α1A (rat submaxillary gland); from tissue; host or cells: rat submaxillary gland
T4 sequence (P43140 1-466): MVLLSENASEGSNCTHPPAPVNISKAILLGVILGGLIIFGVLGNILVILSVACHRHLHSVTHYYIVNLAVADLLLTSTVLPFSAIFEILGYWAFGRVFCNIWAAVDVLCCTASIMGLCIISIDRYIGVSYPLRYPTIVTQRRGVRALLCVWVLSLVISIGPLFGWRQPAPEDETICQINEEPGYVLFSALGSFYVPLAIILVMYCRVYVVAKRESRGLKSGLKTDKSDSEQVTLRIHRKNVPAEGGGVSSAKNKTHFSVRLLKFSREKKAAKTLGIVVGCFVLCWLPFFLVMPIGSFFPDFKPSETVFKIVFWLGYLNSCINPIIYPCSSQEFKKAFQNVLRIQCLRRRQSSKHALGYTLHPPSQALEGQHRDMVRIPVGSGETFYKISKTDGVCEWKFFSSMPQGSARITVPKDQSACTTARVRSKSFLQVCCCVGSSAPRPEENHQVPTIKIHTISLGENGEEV

[9] = biological target: T5, α1d adrenoceptor (rat receptor expressed in mouse fibroblasts) (Rattus norvegicus, UniProt P23944); assay: Radioligand binding, α1d (rat receptor expressed in mouse fibroblasts), [3H]-prazosin
T5 construct: expressed in transfected cells; host or cells: mouse fibroblasts
T5 sequence (P23944 1-561): T2 sequence (P23944 1-561)

[10] = biological target: T6, α1b adrenoceptor (hamster receptor expressed in mouse fibroblasts) (Mesocricetus auratus, UniProt P18841); assay: Radioligand binding, α1b (hamster receptor expressed in mouse fibroblasts), [3H]-prazosin
T6 construct: expressed in transfected cells; host or cells: mouse fibroblasts
T6 sequence (P18841 1-515): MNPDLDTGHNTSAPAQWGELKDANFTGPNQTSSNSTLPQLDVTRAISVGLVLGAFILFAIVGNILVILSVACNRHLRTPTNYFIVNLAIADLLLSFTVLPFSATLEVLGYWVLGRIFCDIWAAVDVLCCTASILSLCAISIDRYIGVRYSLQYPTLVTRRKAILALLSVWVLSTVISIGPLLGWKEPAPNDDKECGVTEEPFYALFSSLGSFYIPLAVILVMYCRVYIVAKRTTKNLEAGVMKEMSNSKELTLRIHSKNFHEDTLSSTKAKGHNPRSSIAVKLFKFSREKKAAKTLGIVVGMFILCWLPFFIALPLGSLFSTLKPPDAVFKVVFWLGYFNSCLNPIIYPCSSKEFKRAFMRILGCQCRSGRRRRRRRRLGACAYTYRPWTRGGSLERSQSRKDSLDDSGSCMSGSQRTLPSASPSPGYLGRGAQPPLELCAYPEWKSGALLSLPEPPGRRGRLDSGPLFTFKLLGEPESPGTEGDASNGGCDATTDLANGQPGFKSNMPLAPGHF

[11] = i.v., anesthetized female Beagle dogs, mean ± S.E.M.
[12] = i.v., anesthetized female Beagle dogs, dose producing 20 mmHg increase in MAP, mean ± S.E.M.

CS(=O)(=O)Nc1c(O)ccc2c1CCCC2C1=NCCN1 (centres unmarked) [Compound A-61603, reference compound]
α1A efficacy [1]: 88% | MAP ED20 mmHg ([2]; female, Beagle, dog, in vivo, iv): 0.27 ± 0.05 nmol/kg | IUP ED5 mmHg [2, 11]: 0.16 ± 0.02 nmol/kg | α1D efficacy [3]: 100%

CCS(=O)(=O)Nc1cccc(Cc2c[nH]cn2)c1C [Compound A-286569]
α1B pD2 ([4]; agonist potency): inactive | Kb [5]: 15.8 µM | type of antagonism at α1B [5]: non-competitive antagonist | α1B r (regression of Schild plot) [5]: 0.6 | α1B slope (Schild plot) [5]: 1.3 | α1A efficacy [1]: 69% | type of antagonism at α1D [6]: non-competitive antagonist | α1D r (regression of Schild plot) [6]: 0.5 | α1D slope (Schild plot) [6]: 1.1 | Kb [7]: 6.31 µM | Selectivity ratio MAP ED20/IUP ED5 [2]: 5.6 | IUP ED5 mmHg [2, 11]: 41.9 ± 6.2 nmol/kg | MAP ED20 mmHg [2, 12]: 201.6 ± 67 nmol/kg | α1D pD2 ([3]; agonist potency): inactive

CCS(=O)(=O)Nc1cccc(Cc2c[nH]cn2)c1 [Compound A-286666]
α1B pD2 ([4]; agonist potency): inactive | Kb [5]: 1.58 µM | type of antagonism at α1B [5]: competitive antagonist | α1B r (regression of Schild plot) [5]: 0.9 | α1B slope (Schild plot) [5]: 0.81 | α1A efficacy [1]: 80% | type of antagonism at α1D [6]: competitive antagonist | α1D r (regression of Schild plot) [6]: 0.9 | α1D slope (Schild plot) [6]: 0.93 | Kb [7]: 0.316 µM | α1D pD2 ([3]; agonist potency): inactive

C[C@@H](N)[C@H](O)c1ccccc1 [PPA, phenylpropanolamine]
EC50 ([4]; agonist potency, read-out: α1B pD2 (converted)): 251 µM | α1B efficacy ([4]; percent of phenylephrine (100%) contraction): 34% | EC50 ([1]; agonist potency, negative log of EC50, read-out: α1A pD2 (converted)): 200 µM | α1A efficacy [1]: 68% | Ki [8]: > 10 µM | Ki [9]: > 10 µM | Ki [10]: > 10 µM | Selectivity ratio MAP ED20/IUP ED5 [2]: 0.4 | IUP ED5 mmHg [2, 11]: 1092 ± 384 nmol/kg | MAP ED20 mmHg [2, 12]: 331 ± 80 nmol/kg | EC50 ([3]; agonist potency, read-out: α1D pD2 (converted)): 63.1 µM | α1D efficacy [3]: 91%
